Reference: the supplement of paper PMC10627819

Legend:
Assay in all cases: fitness (endpoint OD595 vs no drug) (fraction); higher = more growth
[1] = test system: S. aureus Newman
Outline: (§1)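 With the first reading as background, OD595 was measured every 30 min for 14 h in 384-well plates kept at 37 °C and inoculated at OD595 0.01. TSB, LB Lennox or CY was the medium. Fitness is the optical density at the transition into stationary phase divided by the robust mean of no-drug control wells, with a cap of 1.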

[2] = test system: B. subtilis 168
Outline: as §1

[3] = test system: S. pneumoniae D39V
Outline: as §1
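Also: OD595 on entry to stationary phase over no-drug wells; at most 1.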

O=C(O)c1cn(C2CC2)c2cc(N3CCNCC3)c(F)cc2c1=O [Ciprofloxacin] + CO/N=C(\C(=O)N[C@@H]1C(=O)N2C(C(=O)O)=C(COC(N)=O)CS[C@H]12)c1ccco1 [Cefuroxime]
fitness ([1]; first compound 0.078 µg/mL, partner 0.04875 µg/mL, one replicate): 0.554
fitness ([1]; first compound 0.078 µg/mL, partner 0.0975 µg/mL, one replicate): 0.441
fitness ([1]; first compound 0.078 µg/mL, partner 0.195 µg/mL, one replicate): 0.469
fitness ([1]; first compound 0.156 µg/mL, partner 0.04875 µg/mL, one replicate): 0.0634
fitness ([1]; first compound 0.156 µg/mL, partner 0.0975 µg/mL, one replicate): 0.0619
fitness ([1]; first compound 0.156 µg/mL, partner 0.195 µg/mL, one replicate): 0.0412
fitness ([1]; first compound 0.312 µg/mL, partner 0.04875 µg/mL, one replicate): 0.0573
fitness ([1]; first compound 0.312 µg/mL, partner 0.0975 µg/mL, one replicate): 0.0666
fitness ([1]; first compound 0.312 µg/mL, partner 0.195 µg/mL, one replicate): 0.061
fitness ([2]; first compound 0.0098 µg/mL, partner 0.04875 µg/mL): 0.632
fitness ([2]; first compound 0.0098 µg/mL, partner 0.195 µg/mL): 0.317
fitness ([2]; first compound 0.0098 µg/mL, partner 0.39 µg/mL, one replicate): 0.266
fitness ([2]; first compound 0.0098 µg/mL, partner 0.78 µg/mL, one replicate): 0.224
fitness ([2]; first compound 0.0098 µg/mL, partner 1.562 µg/mL, one replicate): 0.24
fitness ([2]; first compound 0.0098 µg/mL, partner 3.125 µg/mL, one replicate): 0.179
fitness ([2]; first compound 0.0098 µg/mL, partner 6.25 µg/mL, one replicate): 0.0609
fitness ([2]; first compound 0.0195 µg/mL, partner 0.04875 µg/mL): 0.391
fitness ([2]; first compound 0.0195 µg/mL, partner 0.0975 µg/mL): 0.212
fitness ([2]; first compound 0.0195 µg/mL, partner 0.195 µg/mL): 0.0634
fitness ([2]; first compound 0.0195 µg/mL, partner 0.39 µg/mL, one replicate): 0.0291
fitness ([2]; first compound 0.0195 µg/mL, partner 0.78 µg/mL, one replicate): 0.0398
fitness ([2]; first compound 0.0195 µg/mL, partner 1.562 µg/mL, one replicate): 0.0343
fitness ([2]; first compound 0.0195 µg/mL, partner 3.125 µg/mL, one replicate): 0.0254
fitness ([2]; first compound 0.0195 µg/mL, partner 6.25 µg/mL, one replicate): 0.0167
fitness ([2]; first compound 0.039 µg/mL, partner 0.04875 µg/mL): 0.042
fitness ([2]; first compound 0.039 µg/mL, partner 0.0975 µg/mL): 0.0421
fitness ([2]; first compound 0.039 µg/mL, partner 0.195 µg/mL): 0.0359
fitness ([2]; first compound 0.039 µg/mL, partner 0.39 µg/mL, one replicate): 0.0168
fitness ([2]; first compound 0.039 µg/mL, partner 0.78 µg/mL, one replicate): 0.0177
fitness ([2]; first compound 0.039 µg/mL, partner 1.562 µg/mL, one replicate): 0.0261
fitness ([2]; first compound 0.039 µg/mL, partner 3.125 µg/mL, one replicate): 0.0302
fitness ([2]; first compound 0.039 µg/mL, partner 6.25 µg/mL, one replicate): 0.0254

O=C(O)c1cn(C2CC2)c2cc(N3CCNCC3)c(F)cc2c1=O [Ciprofloxacin] + CO/N=C(\C(=O)N[C@@H]1C(=O)N2C(C(=O)[O-])=C(C[N+]3(C)CCCC3)CS[C@H]12)c1csc(N)n1 [Cefepime]
fitness ([1]; first compound 0.0375 µg/mL, partner 0.125 µg/mL): 0.764
fitness ([1]; first compound 0.0375 µg/mL, partner 0.25 µg/mL): 0.684
fitness ([1]; first compound 0.0375 µg/mL, partner 0.5 µg/mL): 0.642
fitness ([1]; first compound 0.075 µg/mL, partner 0.125 µg/mL): 0.686
fitness ([1]; first compound 0.075 µg/mL, partner 0.25 µg/mL): 0.667
fitness ([1]; first compound 0.075 µg/mL, partner 0.5 µg/mL): 0.604
fitness ([3]; first compound 0.125 µg/mL, partner 0.007 µg/mL): 0.991
fitness ([3]; first compound 0.125 µg/mL, partner 0.0078 µg/mL): ≥ 1
fitness ([3]; first compound 0.125 µg/mL, partner 0.014 µg/mL): ≥ 1
fitness ([3]; first compound 0.125 µg/mL, partner 0.0155 µg/mL): 0.935
fitness ([3]; first compound 0.125 µg/mL, partner 0.028 µg/mL): 0.917
fitness ([3]; first compound 0.25 µg/mL, partner 0.007 µg/mL): 0.942
fitness ([3]; first compound 0.25 µg/mL, partner 0.0078 µg/mL, one replicate): 0.929
fitness ([3]; first compound 0.25 µg/mL, partner 0.014 µg/mL): 0.972
fitness ([3]; first compound 0.25 µg/mL, partner 0.0155 µg/mL, one replicate): 0.959
fitness ([3]; first compound 0.25 µg/mL, partner 0.028 µg/mL): 0.841
fitness ([3]; first compound 0.25 µg/mL, partner 0.031 µg/mL, one replicate): 0.741
fitness ([3]; first compound 0.5 µg/mL, partner 0.007 µg/mL): 0.877
fitness ([3]; first compound 0.5 µg/mL, partner 0.0078 µg/mL): 0.811
fitness ([3]; first compound 0.5 µg/mL, partner 0.014 µg/mL): 0.903
fitness ([3]; first compound 0.5 µg/mL, partner 0.0155 µg/mL): 0.734
fitness ([3]; first compound 0.5 µg/mL, partner 0.028 µg/mL): 0.779
fitness ([3]; first compound 0.5 µg/mL, partner 0.031 µg/mL): 0.289

O=C(O)c1cn(C2CC2)c2cc(N3CCNCC3)c(F)cc2c1=O [Ciprofloxacin] + CO[C@@]12[C@H](COC(N)=O)C3=C(C(=O)C(C)=C(N)C3=O)N1C[C@@H]1N[C@@H]12 [Mitomycin C]
fitness ([1]; first compound 0.0375 µg/mL, partner 0.0156 µg/mL): 0.609
fitness ([1]; first compound 0.0375 µg/mL, partner 0.0312 µg/mL): 0.557
fitness ([1]; first compound 0.0375 µg/mL, partner 0.0625 µg/mL): 0.366
fitness ([1]; first compound 0.075 µg/mL, partner 0.0156 µg/mL): 0.573
fitness ([1]; first compound 0.075 µg/mL, partner 0.0312 µg/mL): 0.497
fitness ([1]; first compound 0.075 µg/mL, partner 0.0625 µg/mL): 0.219
fitness ([1]; first compound 0.15 µg/mL, partner 0.0156 µg/mL): 0.152
fitness ([1]; first compound 0.15 µg/mL, partner 0.0312 µg/mL): 0.0809
fitness ([1]; first compound 0.15 µg/mL, partner 0.0625 µg/mL): 0.0294
fitness ([3]; first compound 0.125 µg/mL, partner 0.001075 µg/mL): 0.917
fitness ([3]; first compound 0.125 µg/mL, partner 0.002 µg/mL): 0.75
fitness ([3]; first compound 0.125 µg/mL, partner 0.00215 µg/mL): 0.892
fitness ([3]; first compound 0.125 µg/mL, partner 0.004 µg/mL): 0.632
fitness ([3]; first compound 0.125 µg/mL, partner 0.0043 µg/mL): 0.766
fitness ([3]; first compound 0.125 µg/mL, partner 0.008 µg/mL): 0.322
fitness ([3]; first compound 0.25 µg/mL, partner 0.001075 µg/mL): 0.861
fitness ([3]; first compound 0.25 µg/mL, partner 0.002 µg/mL, one replicate): 0.541
fitness ([3]; first compound 0.25 µg/mL, partner 0.00215 µg/mL): 0.822
fitness ([3]; first compound 0.25 µg/mL, partner 0.004 µg/mL, one replicate): 0.394
fitness ([3]; first compound 0.25 µg/mL, partner 0.0043 µg/mL): 0.736
fitness ([3]; first compound 0.25 µg/mL, partner 0.008 µg/mL, one replicate): 0.154
fitness ([3]; first compound 0.5 µg/mL, partner 0.001075 µg/mL): 0.658
fitness ([3]; first compound 0.5 µg/mL, partner 0.00215 µg/mL): 0.643
fitness ([3]; first compound 0.5 µg/mL, partner 0.0043 µg/mL): 0.523
fitness ([3]; first compound 0.5 µg/mL, partner 0.008 µg/mL): 0.188

O=C(O)c1cn(C2CC2)c2cc(N3CCNCC3)c(F)cc2c1=O [Ciprofloxacin] + N[C@@H]1CONC1=O [Cycloserine D]
fitness ([1]; first compound 0.0375 µg/mL, partner 0.375 µg/mL): 0.7
fitness ([1]; first compound 0.0375 µg/mL, partner 0.75 µg/mL): 0.682
fitness ([1]; first compound 0.0375 µg/mL, partner 1.5 µg/mL): 0.689
fitness ([1]; first compound 0.15 µg/mL, partner 0.375 µg/mL): 0.0749
fitness ([1]; first compound 0.15 µg/mL, partner 0.75 µg/mL): 0.0416
fitness ([1]; first compound 0.15 µg/mL, partner 1.5 µg/mL): 0.047
fitness ([2]; first compound 0.0098 µg/mL, partner 0.125 µg/mL): 0.891
fitness ([2]; first compound 0.0098 µg/mL, partner 0.25 µg/mL): 0.85
fitness ([2]; first compound 0.0098 µg/mL, partner 0.5 µg/mL): 0.901
fitness ([2]; first compound 0.0195 µg/mL, partner 0.125 µg/mL): 0.684
fitness ([2]; first compound 0.0195 µg/mL, partner 0.25 µg/mL): 0.653
fitness ([2]; first compound 0.0195 µg/mL, partner 0.5 µg/mL): 0.679
fitness ([2]; first compound 0.039 µg/mL, partner 0.125 µg/mL): 0.144
fitness ([2]; first compound 0.039 µg/mL, partner 0.25 µg/mL): 0.0682
fitness ([2]; first compound 0.039 µg/mL, partner 0.5 µg/mL): 0.12

O=C(O)c1cn(C2CC2)c2cc(N3CCNCC3)c(F)cc2c1=O [Ciprofloxacin] + O=C(O)[C@H]1/C(=C/CO)O[C@@H]2CC(=O)N21 [Clavulanic acid]
fitness ([1]; first compound 0.078 µg/mL, partner 0.03125 µg/mL, one replicate): 0.709
fitness ([1]; first compound 0.078 µg/mL, partner 0.0625 µg/mL, one replicate): 0.695
fitness ([1]; first compound 0.078 µg/mL, partner 0.125 µg/mL, one replicate): 0.699
fitness ([1]; first compound 0.156 µg/mL, partner 0.03125 µg/mL, one replicate): 0.283
fitness ([1]; first compound 0.156 µg/mL, partner 0.0625 µg/mL, one replicate): 0.216
fitness ([1]; first compound 0.156 µg/mL, partner 0.125 µg/mL, one replicate): 0.211
fitness ([1]; first compound 0.312 µg/mL, partner 0.03125 µg/mL, one replicate): 0.143
fitness ([1]; first compound 0.312 µg/mL, partner 0.0625 µg/mL, one replicate): 0.0875
fitness ([1]; first compound 0.312 µg/mL, partner 0.125 µg/mL, one replicate): 0.116
fitness ([2]; first compound 0.0098 µg/mL, partner 1.5 µg/mL): 0.912
fitness ([2]; first compound 0.0098 µg/mL, partner 3 µg/mL): 0.85
fitness ([2]; first compound 0.0098 µg/mL, partner 6 µg/mL): 0.717
fitness ([2]; first compound 0.0195 µg/mL, partner 1.5 µg/mL): 0.758
fitness ([2]; first compound 0.0195 µg/mL, partner 3 µg/mL): 0.643
fitness ([2]; first compound 0.039 µg/mL, partner 1.5 µg/mL): 0.151
fitness ([2]; first compound 0.039 µg/mL, partner 3 µg/mL): 0.0402
fitness ([2]; first compound 0.039 µg/mL, partner 6 µg/mL): 0.0214
fitness ([3]; first compound 0.125 µg/mL, partner 0.5 µg/mL): 0.957
fitness ([3]; first compound 0.125 µg/mL, partner 1 µg/mL): 0.913
fitness ([3]; first compound 0.125 µg/mL, partner 2 µg/mL): 0.796
fitness ([3]; first compound 0.25 µg/mL, partner 0.5 µg/mL): 0.806
fitness ([3]; first compound 0.25 µg/mL, partner 1 µg/mL): 0.788

COc1cccc2c1C(=O)c1c(O)c3c(c(O)c1C2=O)C[C@@](O)(C(=O)CO)C[C@@H]3O[C@H]1C[C@H](N)[C@H](O)[C@H](C)O1 [Doxorubicin] + CC1(C)S[C@@H]2[C@H](NC(=O)Cc3ccccc3)C(=O)N2[C@H]1C(=O)O [Penicillin G]
fitness ([1]; first compound 0.625 µg/mL, partner 0.0195 µg/mL): 0.705
fitness ([1]; first compound 0.625 µg/mL, partner 0.039 µg/mL): 0.727
fitness ([1]; first compound 0.625 µg/mL, partner 0.078 µg/mL): 0.752
fitness ([1]; first compound 1.25 µg/mL, partner 0.0195 µg/mL): 0.711
fitness ([1]; first compound 1.25 µg/mL, partner 0.039 µg/mL): 0.718
fitness ([1]; first compound 1.25 µg/mL, partner 0.078 µg/mL): 0.72
fitness ([1]; first compound 2.5 µg/mL, partner 0.0195 µg/mL): 0.698
fitness ([1]; first compound 2.5 µg/mL, partner 0.039 µg/mL): 0.734
fitness ([1]; first compound 2.5 µg/mL, partner 0.078 µg/mL): 0.692
